Laboratory results reported in US11465980B2, “6-membered aza-heterocyclic containing delta-opioid receptor modulating compounds, methods of using and making the same” (Trevena, Inc., priority 2015, dated 2022).
Where two headings read alike, the source gives them in different places.

How the values were obtained:
[1] = test system: adult male C57 mice; experiment: Tail suspension test (TST); assay type: in vivo, mouse; conditions: route sc, p < 0.05 compared to vehicle-treated mice; for minimal effective dose: Mus musculus, read-out: Active TST Dose
Experimental: The experiments were performed using adult male C57 mice (6-10 weeks of age, 20-30 g, Hilltop Lab, PA). The mice were housed in standard rodent cages with stainless steel mesh wire bar lids in groups of 4 with controlled temperature and light cycle (6:00 a.m.-6:00 p.m.). Animals were given free access to food (Harlan Teklad Global 18% protein (Madison, Wis.)) and water during a minimum 2-day habituation period to the laboratory. Animals that were used in the study were handled, housed, and sacrificed (using compressed CO2) in accord with the current NIH guidelines regarding the use and care of laboratory animals, and all applicable local, state, and federal regulations and guidelines. Animals are identified by cage number, and by markings applied to the proximal tip of the tail using a permanent marker. Group sizes (n=8, and therefore 30-50 animals per study) provide reliable estimates of treatment effects, and this species and strain of mouse has been recognized as appropriate for pharmacology studies.
To measure efficacy of the compounds the compounds were tested using a tail suspension test. The tail suspension test is a behavioral test used to evaluate the efficacy of antidepressant drugs in rodents. In the TST, mice (n=8/group) were suspended by the tail with tape approximately 30-50 cm above the lab bench. Mice are positioned such that the base of their tail is perpendicular to the lab bench. Each mouse is given 1 trial that last 6 minutes. The total duration of immobility is calculated as the percentage of time that the mouse is immobile. The duration of immobility is the main parameter measured. This is calculated from the cumulated time during which the animals is absent of initiated movements including passive swaying. When antidepressant drugs are administered, immobility is decreased by a variety of classes of antidepressant drugs. One or more of the compounds show antidepressant activity.

[2] = test system: rat; experiment: Tactile allodynia produced by nitroglycerin (migraine model, rat); assay type: in vivo; conditions: route sc, nitroglycerin 10 mg/kg ip, p < 0.05 vs vehicle
[3] = test system: mouse; experiment: Tactile allodynia produced by nitroglycerin (migraine model, mouse); assay type: in vivo; conditions: route sc, nitroglycerin 10 mg/kg ip, p < 0.05 vs vehicle; for minimal effective dose: read-out: Active Migraine Doses
Experimental: Compounds were tested for efficacy in rodent models of nitroglycerine induced migraine. In this model both rats and mice can be induced to have a behavioral response consistent with the progression of a migraine attack by the intraperitoneal injection of nitroglycerin. In this test mice or rats (n=8/group) are given an intraperitoneal injection of nitroglycerin at 10 mg/kg. After 90 minutes the animals are subcutaneously dosed with test compound. A measurement of mechanical allodynia will be obtained using the up/down method with seven von Frey monofilaments. There is a specific series used for rat and mouse. Each monofilament is delivered to the hind paw for approximately 1-2 seconds. If there is a response, the next lower force will be delivered. This procedure will be performed until no response was made at the highest force or until four stimuli are administered following the initial response. The 50% paw withdrawal threshold for the hind paw will be calculated using the following formula: [Xth]log=[vFr]log+ky where [vFr] is the force of the last von Frey used, k is the average interval (in log units) between the von Frey monofilaments, and y is a value that depends upon the pattern of withdrawal responses. Testing for tactile sensitivity will be performed and a withdrawal value will be assigned as the tactile sensitivity (expressed in grams of force required to elicit a response) for the injected paw for each animal. Data is presented as the mean grams required to produce a hind paw withdrawal from the von Frey stimulus. […] Compounds found to be effective in this model of migraine at the doses indicated, although other doses may also be active. Other compounds described herein were not necessarily tested, but are expected to be able have some level of efficacy.

[4] = test system: rat; experiment: Mechanical allodynia after Freund's Complete Adjuvant, Randall-Selitto (rat); assay type: in vivo; conditions: route sc, p < 0.05 vs vehicle
Experimental: (§1) Animals were acclimated to the vivarium for at least 48 hr prior to behavioral testing. Inflammation was induced for both rodent species with the administration of an intraplantar (subcutaneous injection into the plantar surface of the hind paw, i.pl.) injection of 0.10 ml Freund's Complete Adjuvant (FCA).
For rat studies, the experiments were conducted 24 hours after CFA administration. Rats are tested for mechanical allodynia in a Randall-Selitto apparatus. The inflamed paw is put on a pedestal and a pointed force of increasing intensity (0 to 250 grams) is applied to the paw. When the animal struggles to withdraw from the force the test is stopped and the force to induce that struggle is recorded. Data may be presented as mean grams of force to withdrawal or a percentage of the maximum possible effect.

[5] = test system: mouse; experiment: Tactile allodynia produced by intraplantar Freund's Complete Adjuvant, von Frey (mouse); assay type: in vivo; conditions: route sc, p < 0.05 vs vehicle
Experimental: as §1
For mouse studies, the experiments were conducted 48 hours after FCA administration. Tactile allodynia was measured using a series of von Frey monofilaments. These filaments are bendable, plastic and intended to poke, not penetrate, the skin. Animals were placed in a Plexiglas chamber (approximately 10 cm×20 cm×25 cm) and allowed to habituate for 5-10 minutes. The chamber was positioned on top of a mesh screen so that von Frey monofilaments can be presented to the plantar surface of the hind paw that is inflamed. The measurement of tactile sensitivity for the injected hind paw is obtained using the up/down method (LaBuda and Little, 2005, J Neurosci. Methods, 144, 175) with […]. Each trial will start with a von Frey force of 0.6 grams delivered to the hind paw for approximately 1-2 seconds. If there was no withdrawal response, the next higher force was be delivered. If there was a response, the next lower force was delivered. This procedure was performed until no response was made at the highest force (2 grams) or until four stimuli are administered following the initial response. The 50% paw withdrawal threshold for the hind paw was be calculated using the following formula: [Xth]log=[vFi]log+ky where [vFr] is the force of the last von Frey used, k is the average interval (in log units) between the von Frey monofilaments, and y is a value that depends upon the pattern of withdrawal responses (Dixon, Annual Review Pharmacol Toxicol, 1980, 20, 441).

[6] = target: T1, delta-opioid receptor (Accession NP_000902) (Homo sapiens, UniProt P41143); experiment: cAMP assay (receptor G-protein mediated response, HTRF); assay type: cell-based
T1 sequence (P41143 whole entry): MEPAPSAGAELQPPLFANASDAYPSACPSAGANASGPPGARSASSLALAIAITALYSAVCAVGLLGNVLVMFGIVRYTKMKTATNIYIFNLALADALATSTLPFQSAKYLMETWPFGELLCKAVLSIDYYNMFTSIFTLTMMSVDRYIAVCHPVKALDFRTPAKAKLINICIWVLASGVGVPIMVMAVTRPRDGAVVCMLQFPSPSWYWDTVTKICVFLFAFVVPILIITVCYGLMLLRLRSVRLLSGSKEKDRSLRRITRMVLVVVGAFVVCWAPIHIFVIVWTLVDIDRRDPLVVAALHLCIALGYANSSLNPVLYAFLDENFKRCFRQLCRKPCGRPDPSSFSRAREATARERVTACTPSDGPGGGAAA
Experimental: (§2) Plasmids encoding delta-opioid receptor (Accession NP_000902), mu-opioid receptor (Accession NP_000905) and kappa-opioid receptor (Accession Assession NP_000903) were generated in the pCMV-Prolink backbone and transfected into an EA-arrestin parental human embryonic kidney (HEK-293) cell line from DiscoveRx Corporation. Clonal stable lines were subsequently selected under G418.
Cell lines were grown adherently in Minimum Essential Media (Cellgro cat #10-010-CM) containing 10% fetal bovine serum (Hyclone cat #SH30071.03), 4 mM glutamine (Cellgro cat #25-005-CI), 150 ug/ml hygromycin B (Cellgro cat #30-240-CR), 150 ug/ml G418 (Cellgro cat #30-234-CR), and 50 u/50 ug penicillin/streptomycin (Lonza cat #17-603E). […]
Receptor G-protein mediated responses were determined by measuring changes in intracellular cAMP using CisBio HTRF cAMP HiRange kit (cat #62AM6PEJ) based on time-resolved fluorescence resonance energy transfer (TR-FRET). […] Following a 30 minute incubation at 37° C. the components of the cAMP HiRange kit were added as directed and the plates were read after 1 hour on a BMG PheraStar plate reader. Responses were measured as the ratio of fluorescence at 665 nm/620 nm per manufacturer's instructions.

[7] = target: T1, delta-opioid receptor (Accession NP_000902); experiment: β-arrestin recruitment assay (DiscoveRx PathHunter); assay type: cell-based; conditions: HEK-293 cells
Experimental: as §2
Cell lines were grown adherently in Minimum Essential Media (Cellgro cat #10-010-CM) containing 10% fetal bovine serum (Hyclone cat #SH30071.03), 4 mM glutamine (Cellgro cat #25-005-CI), 150 ug/ml hygromycin B (Cellgro cat #30-240-CR), 150 ug/ml G418 (Cellgro cat #30-234-CR), and 50 u/50 ug penicillin/streptomycin (Lonza cat #17-603E). Prior to the assay cells were removed from the flasks with CellStripper (Cellgro cat #25-056-CI), repeatedly pipetted to disperse cells, and spun at low speed for 5 min at room temperature. Cells were then resuspended at 250,000 cells/ml in growth media and plated at 5,000 cells/well in 384 well plates (Greiner part #784080). […]
Receptor mediated beta-arrestin recruitment was determined using the DiscoveRx β-arrestin PathHunter Detection kit (cat #93-0001). […] Following a 60 minute incubation at 37° C. the components of the DiscoveRx β-arrestin PathHunter Detection kit were added as directed and the plates were read after 1 hour on a BMG PheraStar plate reader.

Row | Compound | Active Migraine Doses [2] | minimal effective dose [3] | minimal effective dose ([1]; po) | also measured
1 | COc1cc(F)cc(C2CCN(CCn3cccc3)C(C)C2COc2ccc3c(c2)C(=O)NC3)c1 (mixture of isomers) [Compound B1274, (+/−)-6-{[(trans, trans)-4-(3-fluoro-5-methoxyphenyl)-2-methyl-1-[2-(1H-pyrrol-1-yl)ethyl]piperidin-3-yl]methoxy}-2,3-dihydro-1H-isoindol-1-one] |  |  |  | Active TST Dose [1]: ≤10 mg/kg
2 | COc1cc(F)cc([C@@H]2CCN(CCn3cccc3)[C@H](C)[C@H]2COc2ccc3c(c2)C(=O)NC3)c1 (racemic) [Compound B1401, (−)-6-{[trans, trans-4-(3-fluoro-5-methoxyphenyl)-2-methyl-1-[2-(1H-pyrrol-1-yl)ethyl]piperidin-3-yl]methoxy}-2,3-dihydro-1H-isoindol-1-one] | ≤10 mg/kg | ≤ 10 mg/kg |  | minimal effective dose [1]: ≤ 10 mg/kg
3 | CC1C(COc2ccc3c(c2)C(=O)NC3)C(c2ccc3c(c2)OCCC3)CCN1CCn1cccc1 (single isomer, unassigned; (-)) [Compound B1365, (−)-6-{[trans, trans-4-(3,4-dihydro-2H-1-benzopyran-7-yl)-2-methyl-1-[2-(1H-pyrrol-1-yl)ethyl]piperidin-3-yl]methoxy}-2,3-dihydro-1H-isoindol-1-one] | ≤10 mg/kg |  |  | Active TST Dose [1]: ≤10 mg/kg; Active Migraine Doses [3]: ≤10 mg/kg
4 | C[C@@H]1[C@@H](COc2ccc3c(c2)C(=O)NC3)[C@H](c2ccc(F)cc2)CCN1CC1CC1 [Compound B0720] |  | ≤ 10 mg/kg | ≤ 10 mg/kg | Active CFA Dose [4]: ≤30 mg/kg
5 | COc1ccc([C@@H]2CCN(CCn3cccc3)[C@H](C)[C@H]2COc2ccc3c(c2)C(=O)NC3)cc1 [Compound B0876, (−)-6-{[trans, trans-4-(4-methoxyphenyl)-2-methyl-1-[2-(1H-pyrrol-1-yl)ethyl]piperidin-3-yl]methoxy}-2,3-dihydro-1H-isoindol-1-one] | ≤10 mg/kg | ≤ 10 mg/kg | ≤ 30 mg/kg | 
6 | COCCOc1ccc([C@@H]2CCN(CCc3ccccc3F)[C@H](C)[C@H]2COc2ccc3c(c2)C(=O)NC3)cc1 [Compound B1079] |  |  | ≤ 30 mg/kg | 
7 | COc1ccc([C@@H]2CCN(CCC=C(F)F)[C@H](C)[C@H]2COc2ccc3c(c2)C(=O)NC3)cc1 [Compound B1145, (−)-6-{[trans, trans-1-(4,4-difluorobut-3-en-1-yl)-4-(4-methoxyphenyl)-2-methylpiperidin-3-yl]methoxy}-2,3-dihydro-1H-isoindol-1-one] |  | ≤ 10 mg/kg | ≤ 10 mg/kg | Active CFA Dose [5]: ≤10 mg/kg
8 | COCCOc1ccc([C@@H]2CCN(CCc3ccccc3)[C@H](C)[C@H]2COc2ccc3c(c2)C(=O)NC3)cc1F [Compound B1194, (−)-6-{[trans, trans-4-[3-fluoro-4-(2-methoxyethoxy)phenyl]-2-methyl-1-(2-phenylethy)piperidin-3-yl]methoxy}-2,3-dihydro-1H-isoindol-1-one] |  | ≤ 10 mg/kg |  | minimal effective dose [1]: ≤ 10 mg/kg
9 | COCCOc1ccc([C@@H]2CCN(CCn3cccc3)[C@H](C)[C@H]2COc2ccc3c(c2)C(=O)NC3)cc1F [Compound B1205, (−)-6-{[trans, trans-4-[3-fluoro-4-(2-methoxyethoxy)phenyl]-2-methyl-1-[2-(1H-pyrrol-1-yl)ethyl]piperidin-3-yl]methoxy}-2,3-dihydro-1H-isoindol-1-one] | ≤10 mg/kg | ≤ 10 mg/kg | ≤ 30 mg/kg | 
10 | C[C@@H]1[C@@H](COc2ccc3c(c2)C(=O)NC3)[C@H](c2ccccc2)CCN1CCC=C(F)F [Compound B1211] |  | ≤ 10 mg/kg |  | minimal effective dose [1]: ≤ 10 mg/kg
11 | Fc1ccc([C@@H]2CCNC[C@H]2COc2ccc3c(c2)OCO3)cc1 [Paroxetine] |  |  |  | hDOR G Span ([6]; G-protein mediated cAMP response, HEK-293 cells): <100; selectivity for the delta-opioid receptor ([6]; also tested at mu and kappa-opioid receptor): non-selectivity; hDOR B Span [7]: <100; EC50 ([7]; read-out: hDOR B pEC50 (converted)): > 1000 nM
